Here are results for 35 molecules from US8008501B2, “Quinoline compounds and their uses” (Rigel Pharmaceuticals, Inc., priority 2003, dated 2011).

Read-outs that look alike come from different tables or passages of the source.

The subject of assay [1] is cultured human mast cells (CHMC). Put plainly: CHMC low cell density IgE activation: tryptase assay. It is filed as cell-based. The following applies: anti-IgE stimulated, tryptase release, first symbol of cell. How it is done:
Inhibition of degranulation was measured at both low and high cell density by quantifying the release of the granule specific factors tryptase, histamine and hexosaminidase. Inhibition of release and/or synthesis of lipid mediators was assessed by measuring the release of leukotriene LTC4 and inhibition of release and/or synthesis of cytokines was monitored by quantifying TNF-α, IL-6 and IL-13. Tryptase and hexosaminidase were quantified using fluorogenic substrates as described in their respective examples. Histamine, TNFα, IL-6, IL-13 and LTC4 were quantified using the following commercial ELISA kits: histamine (Immunotech #2015, Beckman Coulter), TNFα (Biosource #KHC3011), IL-6 (Biosource #KMC0061), IL-13 (Biosource #KHC0132) and LTC4 (Cayman Chemical #520211). The protocols of the various assays are provided below.
7.7.2 CHMC Low Cell Density IgE Activation: Tryptase and LTC4 Assays
To duplicate 96-well U-bottom plates (Costar 3799) add 65 ul of compound dilutions or control samples that have been prepared in MT [137 mM NaCl, 2.7 mM KCl, 1.8 mM CaCl2, 1.0 mM MgCl2, 5.6 mM Glucose, 20 mM Hepes (pH 7.4), 0.1% Bovine Serum Albumin, (Sigma A4503)] containing 2% MeOH and 1% DMSO. Pellet CHMC cells (980 rpm, 10 min) and resuspend in pre-warmed MT. Add 65 ul of cells to each 96-well plate. Depending on the degranulation activity for each particular CHMC donor, load 1000-1500 cells/well. Mix four times followed by a 1 hr incubation at 37° C. During the 1 hr incubation, prepare 6× anti-IgE solution [rabbit anti-human IgE (1 mg/ml, Bethyl Laboratories A80-109A) diluted 1:167 in MT buffer]. Stimulate cells by adding 25 ul of 6× anti-IgE solution to the appropriate plates. Add 25 ul MT to un-stimulated control wells. Mix twice following addition of the anti-IgE. Incubate at 37° C. for 30 minutes. During the 30 minute incubation, dilute the 20 mM tryptase substrate stock solution [(Z-Ala-Lys-Arg-AMC2TFA; Enzyme Systems Products, #AMC-246)] 1:2000 in tryptase assay buffer [0.1 M Hepes (pH 7.5), 10% w/v Glycerol, 10 uM Heparin (Sigma H-4898) 0.01% NaN3]. Spin plates at 1000 rpm for 10 min to pellet cells. Transfer 25 ul of supernatant to a 96-well black bottom plate and add 100 ul of freshly diluted tryptase substrate solution to each well. Incubate plates at room temperature for 30 min. Read the […] of the plates at 355 nm/460 nm on a spectrophotometric plate reader.

The test system is the same in assay [2]. Put plainly: CHMC low cell density ionomycin activation: tryptase assay. The following applies: ionomycin stimulated, tryptase release. It is filed as cell-based. On the procedure:
To confirm that many of the quinoline compounds of the invention exert their inhibitory activity by blocking or inhibiting the early IgE receptor signal transduction cascade, many of the compounds were tested in cellular assays for ionomycin-induced degranulation, as described below.
7.8.1 CHMC Low Cell Density Ionomycin Activation: Tryptase Assay
Assays for ionomycin-induced mast cell degranulation were carried out as described for the CHMC Low Density IgE Activation assays (Section 7.7.2, supra), with the exception that during the 1 hour incubation, 6× ionomycin solution [5 mM ionomycin (Signma 1-0634) in MeOH (stock) diluted 1:416.7 in MT buffer ([…])] was prepared and cells were stimulated by adding 25 μl of the 6× ionomycin solution to the appropriate plates.

Assay [3] has as its system mouse model of passive cutaneous anaphylaxis (PCA). Particulars: i.p., 30 minutes pretreatment time.
Experimental: This model provides a direct measure of IgE-induced degranulation of tissue mast cells. In this model, IgE primed animals are exposed to an allergen challenge and the change in permeability of dermal vasculature that results from histamine release from mast cells is measured by change in the amount of dye leakage into surrounding tissue. Inhibition of mediator release by compounds that modulate mast cell degranulation is easily measured by extracting the dye from the tissue.
In the PCA assay mice are passively sensitized by intradermal injection with anti-dinitrophenol (DNP) IgE antibodies (Day-1). At predetermined times (5-60 minutes prior to challenge), animals are treated with the test agent (Day 0). The modulatory effect of the agent on cutaneous mast cell degranulation is measured following intravenous injection of DNP conjugated to human serum albumin (HSA-DNP), together with Evans blue dye. The resulting cross-linking of the IgE receptor and subsequent mast cell degranulation-induced increase in vascular permeability is determined by measuring the amount of dye extravasation into the tissue. Dye is extracted from the tissue by formamide, and the absorbance of this extract is read at 620 nm. The inhibitory effect of drug treatment is reported as the percent inhibition compared to vehicle treatment, that is, the percent reduction in A620. […]
Setting [4] is: second symbol of cell, read-out: CHMC -IONO.
Setting [5] is: Homo sapiens, Mast cell, second symbol of cell, read-out: CHMC -IONO.

Turning to `Cc1noc(C)c1NC(=O)c1cc(-c2ccccc2)nc2ccccc12` [Compound 1], the IC50 in assay [1] and in assay [2] (setting [4]) was over 10 µM in each case. Take `Cc1cc(NC(=O)c2c(-c3ccccc3)noc2C)c2ccccc2n1` [Compound 3]: in assay [1], the IC50 is over 10 µM. For `Cc1onc(-c2ccccc2)c1C(=O)Oc1ccnc2ccccc12` [Compound 5], the IC50 in assay [1] and in assay [2] (setting [4]) was at most 10 µM each time.

`Cc1onc(-c2ccccc2)c1C(=O)Oc1ccnc2cc(Cl)ccc12` [Compound 7]: the IC50 in assay [1] and in assay [2] (setting [4]) was at most 10 µM throughout. Take `Cc1cc(OC(=O)c2c(-c3ccccc3)noc2C)c2ccccc2n1` [Compound 9, 5-Methyl-3-phenyl-4-isoxazolecarboxylic acid, 2-methyl-4-quinolinyl Ester]: the IC50 in assay [1] (Homo sapiens, Mast cell) is at most 10 µM; in assay [2] (setting [5]), at most 10 µM. Take `Cc1cc(OC(=O)c2c(-c3ccccc3)noc2C)c2cc(F)ccc2n1` [Compound 11]: the IC50 in assay [1] and in assay [2] (setting [4]) was at most 10 µM each time. For `Cc1onc(-c2ccccc2)c1C(=O)Oc1ccnc2cc(C(F)(F)F)ccc12` [Compound 13], the IC50 in assay [1] and in assay [2] (setting [4]) was at most 10 µM in each case. As for `Cc1onc(-c2ccccc2)c1C(=O)Oc1ccnc2c(C(F)(F)F)cccc12` [Compound 15], the IC50 in assay [1] was at most 10 µM. `CCOC(=O)c1cnc2cc(C(F)(F)F)ccc2c1OC(=O)c1c(-c2ccccc2)noc1C` [Compound 17]: the IC50 in assay [1] and in assay [2] (setting [4]) was at most 10 µM throughout. `CCOC(=O)c1cc(OC(=O)c2c(-c3ccccc3)noc2C)c2ccccc2n1` [Compound 19]: the IC50 in assay [1] and in assay [2] (setting [4]) was at most 10 µM each time. For the molecule `Cc1cc(OC(=O)c2c(C)noc2C)c2cc(F)ccc2n1` [Compound 21], in assay [1], the IC50 was at most 10 µM.

Consider `Cc1cc(OC(=O)c2c(-c3c(F)cccc3Cl)noc2C)c2cc(F)ccc2n1` [Compound 23], for which the IC50 in assay [1] was at most 10 µM. `Cc1cc(OC(=O)c2c(-c3ccccc3Cl)noc2C)c2cc(F)ccc2n1` [Compound 25]: the IC50 in assay [1] and in assay [2] (setting [4]) was at most 10 µM throughout. Regarding `Cc1onc(-c2ccccc2)c1C(=O)Oc1cc(C(F)(F)F)nc2ccc(OC(F)(F)F)cc12` [Compound 27], the IC50 in assay [1] and in assay [2] (setting [4]) was at most 10 µM each time. As to `Cc1noc(C)c1C(=O)Oc1cc(C(F)(F)F)nc2ccc(OC(F)(F)F)cc12` [Compound 29], the IC50 in assay [1] and in assay [2] (setting [4]) was at most 10 µM each time.

As to `Cc1onc(-c2c(F)cccc2Cl)c1C(=O)Oc1cc(C(F)(F)F)nc2ccc(OC(F)(F)F)cc12` [Compound 31], the IC50 in assay [1] and in assay [2] (setting [4]) was at most 10 µM throughout. In assay [1], `Cc1onc(-c2ccccc2Cl)c1C(=O)Oc1cc(C(F)(F)F)nc2ccc(OC(F)(F)F)cc12` [Compound 33] showed an IC50 of at most 10 µM. Regarding `Cc1onc(-c2ccccc2)c1C(=O)Nc1ccnc2cc(C(F)(F)F)ccc12` [Compound 35, 5-Methyl-3-phenyl-N-(7-trifluoromethyl-4-quinolinyl)-4-isoxazolecarboxamide], the IC50 in assay [1] (Homo sapiens, Mast cell) was at most 10 µM; in assay [2] (setting [5]), at most 10 µM. As for `Cc1noc(C)c1C(=O)Nc1ccnc2cc(C(F)(F)F)ccc12` [Compound 37], the IC50 in assay [1] and in assay [2] (setting [4]) was over 10 µM in each case.

In the case of `Cc1onc(-c2c(F)cccc2Cl)c1C(=O)Nc1ccnc2cc(C(F)(F)F)ccc12` [Compound 39], the figures for the IC50 in assay [1] and in assay [2] (read-out: CHMC -IONO (number printed instead of class symbol)) were at most 10 µM and 30 µM, respectively. For `Cc1onc(-c2ccccc2Cl)c1C(=O)Nc1ccnc2cc(C(F)(F)F)ccc12` [Compound 41], the IC50 in assay [1] and in assay [2] (setting [4]) was over 10 µM each time.

Take `Cc1onc(-c2ccccc2)c1NC(=O)c1cc(Cl)nc2ccc(Br)cc12` [Compound 43, 6-bromo-2-chloro-N-(5-methyl-3-phenylisoxazol-4-yl)-4-quinolinecarboxamide]: the IC50 was at most 10 µM in assay [1] (Homo sapiens, Mast cell) and over 10 µM in assay [2] (setting [5]).

Turning to `Cc1noc(C)c1NC(=O)c1cc(Cl)nc2ccc(Br)cc12` [Compound 45], the IC50 was at most 10 µM in assay [1] and over 10 µM in assay [2] (setting [4]). Turning to `Cc1cc(C(=O)Nc2c(-c3ccccc3)noc2C)c2cc(F)ccc2n1` [Compound 47, 6-Fluoro-2-methyl-N-(5-methyl-3-phenylisoxazol-4-yl)-4-quinolinecarboxamide], the IC50 was at most 10 µM in assay [1] (Homo sapiens, Mast cell) and over 10 µM in assay [2] (setting [5]). On to `Cc1cc(C(=O)Nc2c(C)noc2C)c2cc(F)ccc2n1` [Compound 49], for which the IC50 is at most 10 µM in assay [1] and over 10 µM in assay [2] (setting [4]). For `Cc1onc(-c2ccccc2)c1C(=O)Oc1ccnc2ccc(OC(F)(F)F)cc12` [Compound 51] the same measures were at most 10 µM and at most 10 µM. Take `Cc1onc(-c2ccccc2Cl)c1C(=O)Oc1ccnc2ccc(OC(F)(F)F)cc12` [Compound 53]: the IC50 in assay [1] and in assay [2] (setting [4]) was at most 10 µM throughout.

On to `Cc1onc(-c2c(F)cccc2Cl)c1C(=O)Oc1ccnc2ccc(OC(F)(F)F)cc12` [Compound 57], for which the IC50 in assay [1] is at most 10 µM; in assay [2] (setting [4]) it was over 10 µM. For `Cc1onc(-c2ccccc2)c1NC(=O)c1cc(-c2ccccc2)nc2ccccc12` [Compound 61] the same measures were over 10 µM and over 10 µM. For `Cc1onc(-c2ccccc2)c1NC(=O)c1ccnc2ccccc12` [Compound 63] the same measures were over 10 µM and over 10 µM. For `Cc1onc(-c2ccccc2)c1NC(=O)c1cc(Nc2ccc3[nH]ccc3c2)nc2ccc(Br)cc12` [Compound 65] the same measures were at most 10 µM and over 10 µM. `CNc1cc(NC(=O)c2c(-c3ccccc3)noc2C)c2cc(Br)ccc2n1` [Compound 67]: the IC50 in assay [1] is at most 10 µM; in assay [2] (setting [4]), over 10 µM. On to `Cc1onc(-c2ccccc2)c1NC(=O)c1cc(Nc2cccc(O)c2)nc2ccc(Br)cc12` [Compound 71, 6-Bromo-2-(3-hydroxyphenyl)amino-N-(5-methyl-3-phenylisoxazol-4-yl)-4-quinolinecarboxamide], for which the IC50 in assay [1] (Homo sapiens, Mast cell) is at most 10 µM; in assay [2] (setting [5]) it was at most 10 µM. For `CN1CCC(=C2c3ccccc3C=Cc3ccccc32)CC1` [Cyproheptadine, cyproheptadine], the “inhibition of the PCA response” value in assay [3] (8 mg/kg, n=23 experiments) is listed as 61% +/−4. Turning to `CN(C)CCOC(c1ccccc1)c1ccccc1` [diphenhydramine], the “inhibition of the PCA response” value in assay [3] (highest dose 50 mg/kg) is given as “up to 86%”.
